Experimental data taken from patent US10954271B2, “Anti-microbial peptides” (priority 2014, dated 2021).
≈ marks a conversion by molar mass, not a printed value. Positions of bridges follow the written chain, without caps; N, C: chain ends. Non-standard residues stand in square brackets, D forms with d. Residues, ends and D or L forms follow the SMILES beside them. d2Nal = N[C@H](Cc1ccc2ccccc2c1)C(=O)O; Nle = CCCC[C@H](N)C(=O)O

Columns and labels:
[1] = test system: M. smegmatis; experiment: M. smegmatis adhesion / anti-biofilm assay, counting crystal violet-positive cells; assay type: cell-based
Excerpt: A second series of cationic-aromatic AMPs was designed, and linked (via the N-terminus) to linear anti-biofilm peptides. This created a hybrid anti-biofilm/AMP (AB01), with a Gram-positive specific C-terminal di-peptide (dVal-dPro). A model Gram positive organism that rapidly forms biofilms (M. smegmatis; Ojha, A. and G. F. Hatfull, The role of iron in Mycobacterium smegmatis biofilm formation: the exochelin siderophore is essential in limiting iron conditions for biofilm formation but not for planktonic growth. Mol Microbiol, 2007. 66(2): p. 468-83) was used to assess the inhibition of adhesion/anti-biofilm activity of AB01 & two control AMPs, using a 2 day old biofilm.
The effect of three AMPs on M. smegmatis adhesion was measured on day 0 (data not shown) & after 2 days of biofilm growth, counting crystal violet-positive cells (FIG. 5; see O'Toole, G. A., Microtiter dish biofilm formation assay. J Vis Exp, 2011(47)). Control bacterial adhesion was designated as 100%, and the effect of an added AMP on the cell count was quantified as a percent of the control. The AMPs included Model 01, an AMP of the (RW)n series, (RW)4: [17]; AM11, a cyclized analog of the (RW)n series c(RW)3; and AB01, a hybrid of a cyclized AMP and a linear anti-biofilm peptide.

[2] = test system: E. coli
[3] = test system: Gram-positive and Gram-negative bacteria; experiment: Membrane disruption and cell agglutination assessed via microscopy; assay type: cell-based
Experimental: (§1) Further, a set of the anti-microbial peptides described herein were tested for their anti-microbial activity on both Gram-positive and Gram-negative bacteria. […] Unexpectedly, it was further observed that the C-terminal residues (denoted by bold font) selectively target gram-negative or gram-positive bacteria, as indicated.
(§2) Anti-microbial activity is reported as the concentration needed to inhibit 50% of bacterial division (ICso, a standard used in the AMP field). […] In contrast, Opt 3-5 have a Phe for Pro substitution in the C-terminal di-peptide, which produces relatively specificity for Gram-negative organisms (e.g. E. coli). Melittin is a cationic-hydrophobic AMP that served as anti-microbial positive control. Agglutination, an attribute assisting in the clearance of bacterial cells during infection, was assessed via microscopy, and was present with all five AMPs.
(§3) (1) Microscopy. Bacteria can be treated with dilutions of AMPs were directly analyzed via microscopy for membrane disruption phenotypes, including cell agglutination, cell lysis, and cell elongation/septum disruption. Cells can be also monitored for septum inhibition and elongation through use of the membrane dye FM5-95 and DAPI. Additionally the cells can be imaged and stained with the Life Technologies LIVE/DEAD® BacLight™ Bacterial Viability Kit For killing kinetics of the anti-microbial peptides.
(2) Agglutination and Protein Aggregation. Using the antimicrobial 96 well assay described above, imaging of the 96 well plate and can provide a method for the determination of the MAC (minimum agglutination concentration) for the bacteria, as described. Torrent et al., PLoS Pathogens 8(11): e1003005 (2012).

[4] = test system: Gram-positive and Gram-negative bacteria; experiment: Non-membrane activity (mode of action: septum inhibition, protein aggregation, cell division); assay type: cell-based
Experimental: as §1
Core sequences were cyclized to enhance druggability and anti-microbial activity. Multiple cationic residues increased binding to anionic membrane and intracellular structures. […] The C-terminal di-peptides in these AMPs were used for their ability to enhance oral activity in peptides. It was discovered that they also directed relative anti-microbial activity towards either Gram-positive or negative organisms (Table 1 and FIG. 5). These AMPs appear to have multiple mechanisms of action (Table 1), potentially mediated by specific binding to the bacterial membrane, and their intracellular accumulation (data not shown). In essence, these AMPs are a form of combination therapy.
as §3

[5] = test system: E. coli; experiment: Anti-microbial activity, concentration needed to inhibit 50% of bacterial division (IC50); assay type: cell-based; settings: for relative specificity Gram-positive versus Gram-negative: from IC50 against E. coli and B. subtilis, Table 1
Experimental: as §1, §2

[6] = test system: B. subtilis; experiment: as above; assay type: cell-based
Experimental: as §1, §2

[7] = normal beagles (n=4), 5 days of 5× therapeutic dose
[8] = orally administered, canines (beagles)
Excerpt: We further conducted a preliminary study in a large animal canine model to assess cardiovascular and hematologic safety and clearance of the peptide TCAM207 (SEQ NO: 209) from plasma over a multiple day dosing. Male and female purpose bred beagles were randomized to treatment and instrumented with Holter 9 lead electrocardiograph (ECG) jackets and non-invasive oscillographic paw blood pressure monitoring (emkaPAC 4G telemetry). ECG and BP signals were sampled at 500 Hz using GLP compliant software (IOX, EMKA). ECG signals were saved continuously and blood pressure determined hourly. Blood samples were taken before and after 14 days of SC or oral drug administration for complete chemistry panel and CBC analysis. Samples were taken 1, 2, 4, 8, 12, and 24 hours after drug administration on days 1 and 5 for assay of plasma IIP to assess PK profile. After a 1-2 week washout, dogs were randomized to the other arm of the study.

Compound: CC[C@H](C)[C@H](NC(=O)[C@H](CCCNC(=N)N)NC(=O)[C@H](Cc1ccccc1)NC(C)=O)C(=O)N[C@@H](CCCNC(=N)N)C(=O)N[C@H](C(=O)N[C@@H](CCCNC(=N)N)C(=O)N[C@H](C(=O)N[C@H]1CC(=O)NCCCC[C@@H](C(=O)N[C@@H](C(=O)N2CCC[C@@H]2C(N)=O)C(C)C)NC(=O)[C@H](CCCNC(=N)N)NC(=O)[C@H](Cc2c[nH]c3ccccc23)NC(=O)[C@H](Cc2ccccc2)NC(=O)[C@@H](Cc2ccc3ccccc3c2)NC(=O)[C@H](CCCNC(=N)N)NC(=O)[C@H](CCCNC(=N)N)NC1=O)C(C)C)C(C)C [AB01, Ac-FRIRVRV-c[Asp-RR-dNal(21-FWR-Lys]-dVal-dPro-CONH2] (Ac-FRIRVRVDRR[d2Nal]FWRK[dV][dP]-NH2; lactam 8-15)
- concentration that prevented adhesion in a 2 day old biofilm ([1]; 2 day old biofilm): 3 to 5 µM
- potency in inhibition of adhesion/anti-biofilm activity relative to Model 01 ([1]; 2 day old biofilm): ~100 fold
- concentration that prevented adhesion on day 0 [1]: 1 µM
- MIC for E. coli [2]: 25 µM

Compound: CC[C@H](C)[C@H](NC(=O)CN)C(=O)NCC(=O)N[C@@H](C)C(=O)N[C@H](C(=O)N[C@@H](CC(C)C)C(=O)N[C@@H](CCCCN)C(=O)N[C@H](C(=O)N[C@@H](CC(C)C)C(=O)N[C@H](C(=O)N[C@H](C(=O)NCC(=O)N[C@@H](CC(C)C)C(=O)N1CCC[C@H]1C(=O)N[C@@H](C)C(=O)N[C@@H](CC(C)C)C(=O)N[C@H](C(=O)N[C@@H](CO)C(=O)N[C@@H](Cc1c[nH]c2ccccc12)C(=O)N[C@H](C(=O)N[C@@H](CCCCN)C(=O)N[C@@H](CCCNC(=N)N)C(=O)N[C@@H](CCCCN)C(=O)N[C@@H](CCCNC(=N)N)C(=O)N[C@@H](CCC(N)=O)C(=O)N[C@@H](CCC(N)=O)C(N)=O)[C@@H](C)CC)[C@@H](C)CC)[C@@H](C)O)[C@@H](C)O)C(C)C)C(C)C [Melittin, reference compound]
- Membrane Disruption? [3]: Yes
- Non-Membrane Activity? [4]: None observed
- IC50, E. coli; μg/mL ([5]; concentration needed to inhibit 50% of bacterial division): 0.7 µg/mL (≈ 0.246 µM)
- IC50 B. subtilis [6]: 20.8 µg/mL (≈ 7.31 µM)

Compound: CCCC[C@H](NC(C)=O)C(=O)N[C@H]1CC(=O)NCCCC[C@@H](C(=O)N[C@@H](C(=O)N2CCC[C@@H]2C(N)=O)C(C)C)NC(=O)[C@@H](Cc2ccc3ccccc3c2)NC(=O)[C@H](CCCNC(=N)N)NC(=O)[C@@H](Cc2ccc3ccccc3c2)NC(=O)[C@@H]2CCCN2C(=O)[C@H](CCCNC(=N)N)NC1=O [Opt 1] (Ac-[Nle]DRP[d2Nal]R[d2Nal]K[dV][dP]-NH2; lactam 2-8)
- Membrane Disruption? [3]: Yes, and Agglutination
- relative specificity Gram-positive versus Gram-negative [5]: relatively specific for B. subtilis

Compound: CCCC[C@H](NC(C)=O)C(=O)N[C@H]1CC(=O)NCCCC[C@@H](C(=O)N[C@@H](C(=O)N2CCC[C@@H]2C(N)=O)C(C)C)NC(=O)[C@H](CCCNC(=N)N)NC(=O)[C@@H](Cc2ccc3ccccc3c2)NC(=O)[C@H](CCCNC(=N)N)NC(=O)[C@@H](Cc2ccc3ccccc3c2)NC(=O)[C@@H]2CCCN2C(=O)[C@H](CCCNC(=N)N)NC1=O [Opt 2] (Ac-[Nle]DRP[d2Nal]R[d2Nal]RK[dV][dP]-NH2; lactam 2-9)
- Membrane Disruption? [3]: Yes, and Agglutination
- relative specificity Gram-positive versus Gram-negative [5]: relatively specific for B. subtilis

Compound: CCCC[C@H](NC(C)=O)C(=O)N[C@H]1CC(=O)NCCCC[C@@H](C(=O)N[C@H](Cc2ccccc2)C(=O)N[C@@H](C(N)=O)C(C)C)NC(=O)[C@H](Cc2c[nH]c3ccccc23)NC(=O)[C@H](CCCNC(=N)N)NC(=O)[C@@H](Cc2ccc3ccccc3c2)NC(=O)[C@@H]2CCCN2C(=O)[C@H](CCCNC(=N)N)NC1=O [Opt 3] (Ac-[Nle]DRP[d2Nal]RWK[dF][dV]-NH2; lactam 2-8)
- Membrane Disruption? [3]: Yes, and Agglutination
- Non-Membrane Activity? [4]: None observed

Compound: CCCC[C@H](NC(C)=O)C(=O)N[C@H]1CC(=O)NCCCC[C@@H](C(=O)N[C@@H](Cc2ccccc2)C(=O)N[C@H](C(N)=O)C(C)C)NC(=O)[C@H](Cc2c[nH]c3ccccc23)NC(=O)[C@H](CCCNC(=N)N)NC(=O)[C@@H](Cc2ccc3ccccc3c2)NC(=O)[C@@H]2CCCN2C(=O)[C@H](CCCNC(=N)N)NC1=O [Opt 4] (Ac-[Nle]DRP[d2Nal]RWKFV-NH2; lactam 2-8)
- Membrane Disruption? [3]: Yes, and Agglutination

Compound: CCCC[C@H](NC(C)=O)C(=O)N[C@H]1CC(=O)NCCCC[C@@H](C(=O)N[C@H](C(=O)N[C@@H](Cc2ccccc2)C(N)=O)C(C)C)NC(=O)[C@H](Cc2c[nH]c3ccccc23)NC(=O)[C@H](CCCNC(=N)N)NC(=O)[C@@H](Cc2ccc3ccccc3c2)NC(=O)[C@@H]2CCCN2C(=O)[C@H](CCCNC(=N)N)NC1=O [Opt 5] (Ac-[Nle]DRP[d2Nal]RWKVF-NH2; lactam 2-8)
- Membrane Disruption? [3]: Yes, and Agglutination
- Non-Membrane Activity? [4]: Altered cell

Compound: (RW)4 [Model-01, reference compound]
- concentration that prevented adhesion in a 2 day old biofilm ([1]; 2 day old biofilm): ≥ 100 µM
- concentration that prevented adhesion on day 0 [1]: 10 µM

Compound: Ac-[Nle]DP[d2Nal]RWK[dV][dP]-NH2 (lactam 2-7) [TCAM207]
- RBC casts [7]: no RBC casts were noted
- change in red blood cell (RBC) count, hemoglobin (Hg), and hematocrit (Hct) [7]: slight (statistically insignificant) decreases in all parameters
- time the peptide was stable and remained in the plasma [8]: up to 24 hrs
